In US12637432B2, “Inhibitors of ACK1/TNK2 tyrosine kinase” (H. LEE MOFFITT CANCER CENTER AND RESEARCH INSTITUTE, INC., priority 2020, dated 2026):

target: T1, ACK1 (Homo sapiens, UniProt Q07912); assay: Reaction Biology 33P Hotspot assay; assay type: biochemical
T1 construct: purchased Reaction Biology
T1 sequence (Q07912 whole entry): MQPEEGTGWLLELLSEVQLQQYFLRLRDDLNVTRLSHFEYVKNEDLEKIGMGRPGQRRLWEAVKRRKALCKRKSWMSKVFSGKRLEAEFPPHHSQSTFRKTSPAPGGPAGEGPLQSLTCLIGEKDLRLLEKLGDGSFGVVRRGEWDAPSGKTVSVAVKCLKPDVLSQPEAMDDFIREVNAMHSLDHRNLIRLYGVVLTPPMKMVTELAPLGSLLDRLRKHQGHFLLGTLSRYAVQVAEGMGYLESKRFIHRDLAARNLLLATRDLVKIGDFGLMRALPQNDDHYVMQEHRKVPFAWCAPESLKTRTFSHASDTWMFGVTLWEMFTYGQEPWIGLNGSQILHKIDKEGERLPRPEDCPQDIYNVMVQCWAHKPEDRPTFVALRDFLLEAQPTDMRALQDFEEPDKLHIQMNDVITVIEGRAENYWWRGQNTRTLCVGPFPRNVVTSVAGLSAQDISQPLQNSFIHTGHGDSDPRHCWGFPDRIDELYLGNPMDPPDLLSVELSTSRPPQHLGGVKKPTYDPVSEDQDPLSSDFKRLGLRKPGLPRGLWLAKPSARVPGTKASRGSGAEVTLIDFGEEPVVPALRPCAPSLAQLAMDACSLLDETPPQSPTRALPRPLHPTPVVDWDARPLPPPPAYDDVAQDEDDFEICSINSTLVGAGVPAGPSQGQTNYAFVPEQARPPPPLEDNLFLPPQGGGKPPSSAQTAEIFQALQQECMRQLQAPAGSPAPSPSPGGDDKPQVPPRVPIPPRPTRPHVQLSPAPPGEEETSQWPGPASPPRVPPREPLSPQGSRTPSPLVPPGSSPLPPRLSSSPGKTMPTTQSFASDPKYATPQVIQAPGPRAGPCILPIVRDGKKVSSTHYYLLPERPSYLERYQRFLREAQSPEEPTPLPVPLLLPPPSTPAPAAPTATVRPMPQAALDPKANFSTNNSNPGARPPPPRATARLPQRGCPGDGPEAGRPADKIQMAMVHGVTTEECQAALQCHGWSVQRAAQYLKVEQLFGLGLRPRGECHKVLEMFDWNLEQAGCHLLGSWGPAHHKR

Going from COc1cc(N2CCN(C)CC2)c(F)cc1Nc1ncc(C)c(NCC2CCOCC2)n1 [N^2-(5-fluoro-2-methoxy-4-(4-methylpiperazin-1-yl)phenyl)-5-methyl-N^4-((tetrahydro-2H-pyran-4-yl)methyl)pyrimidine-2,4-diamine] to COc1cc(N2CCN(C)CC2)ccc1Nc1ncc(C)c(NCC2CCOCC2)n1 [N^2-(2-methoxy-4-(4-methylpiperazin-1-yl)phenyl)-5-methyl-N^4-((tetrahydro-2H-pyran-4-yl)methyl)pyrimidine-2,4-diamine], the IC50 rises from 14.7 nM to 34.5 nM (2.3-fold). The first is the more potent here.

CC(C)Oc1cc(Nc2ncc(Cl)c(NCC3CCOCC3)n2)ccc1-c1cnn(C)c1 [5-chloro-N^2-(3-isopropoxy-4-(1-methyl-1H-pyrazol-4-yl)phenyl)-N^4-((tetrahydro-2H-pyran-4-yl)methyl)pyrimidine-2,4-diamine] and COc1cc(Nc2ncc(Cl)c(NCC3CCOCC3)n2)ccc1-c1cnn(C)c1 [5-chloro-N^2-(3-methoxy-4-(1-methyl-1H-pyrazol-4-yl)phenyl)-N^4-((tetrahydro-2H-pyran-4-yl)methyl)pyrimidine-2,4-diamine] are within 1.5-fold of each other in IC50: 23.6 nM for the first, 27.6 nM for the second.

Going from Cn1cc(Nc2ncc(Cl)c(NCC3CCOCC3)n2)cn1 [5-chloro-N^2-(1-methyl-1H-pyrazol-4-yl)-N^4-((tetrahydro-2H-pyran-4-yl)methyl)pyrimidine-2,4-diamine] to CN1CCC(n2cc(Nc3ncc(Cl)c(NCC4CCOCC4)n3)cn2)CC1 [5-chloro-N^2-(1-(1-methylpiperidin-4-yl)-1H-pyrazol-4-yl)-N^4-((tetrahydro-2H-pyran-4-yl)methyl)pyrimidine-2,4-diamine], the IC50 rises from 84 nM to 138 nM (1.6-fold). The first is the more potent here.

Going from CC[C@@H](Nc1nc(Nc2ccc(C3CCN(C)CC3)c(OC(C)C)c2)ncc1Cl)C1CCOCC1 [(R)-5-chloro-N^2-(3-isopropoxy-4-(1-methylpiperidin-4-yl)phenyl)-N^4-(1-(tetrahydro-2H-pyran-4-yl)propyl)pyrimidine-2,4-diamine] to CC(C)Oc1cc(Nc2ncc(Cl)c(N[C@H](C)C3CCOCC3)n2)ccc1C1CCN(C)CC1 [(R)-5-chloro-N^2-(3-isopropoxy-4-(1-methylpiperidin-4-yl)phenyl)-N^4-(1-(tetrahydro-2H-pyran-4-yl)ethyl)pyrimidine-2,4-diamine], the IC50 falls from 352 nM to 40.8 nM (8.6-fold).

Going from Clc1cnc(Nc2ccc(OCC3CCOCC3)cc2)nc1NC[C@H]1CCCO1 [(R)-5-chloro-N^2-(4-((tetrahydro-2H-pyran-4-yl)methoxy)phenyl)-N^4-((tetrahydrofuran-2-yl)methyl)pyrimidine-2,4-diamine] to Clc1cnc(Nc2ccc(OCC3CCOCC3)cc2)nc1NCC1CCOCC1 [5-chloro-N^2-(4-((tetrahydro-2H-pyran-4-yl)methoxy)phenyl)-N^4-((tetrahydro-2H-pyran-4-yl)methyl)pyrimidine-2,4-diamine], the IC50 falls from 69 nM to 46 nM (1.5-fold).

Cn1cc(-c2ccc(Nc3ncc(Cl)c(NCC4CCOCC4)n3)cc2F)cn1 [5-chloro-N^2-(3-fluoro-4-(1-methyl-1H-pyrazol-4-yl)phenyl)-N^4-((tetrahydro-2H-pyran-4-yl)methyl)pyrimidine-2,4-diamine] and COc1cc(-c2cnn(C)c2)ccc1Nc1ncc(Cl)c(NCC2CCOCC2)n1 [5-chloro-N^2-(2-methoxy-4-(1-methyl-1H-pyrazol-4-yl)phenyl)-N^4-((tetrahydro-2H-pyran-4-yl)methyl)pyrimidine-2,4-diamine] are within 1.5-fold of each other in IC50: 31 nM for the first, 38.1 nM for the second.

Going from COc1cc(-n2cccn2)ccc1Nc1ncc(Cl)c(NC[C@H]2CCCO2)n1 [(R)-5-chloro-N^2-(2-methoxy-4-(1H-pyrazol-1-yl)phenyl)-N^4-((tetrahydrofuran-2-yl)methyl)pyrimidine-2,4-diamine] to COc1cc(-n2cccn2)ccc1Nc1ncc(Cl)c(NCC2CCOCC2)n1 [5-chloro-N^2-(2-methoxy-4-(1H-pyrazol-1-yl)phenyl)-N^4-((tetrahydro-2H-pyran-4-yl)methyl)pyrimidine-2,4-diamine], the IC50 falls from 64.6 nM to 34.9 nM (1.9-fold).

Compared with Cn1cc(-c2ccc(Nc3ncc(Cl)c(NC[C@H]4CCCO4)n3)cc2)cn1 [(R)-5-chloro-N^2-(4-(1-methyl-1H-pyrazol-4-yl)phenyl)-N^4-((tetrahydrofuran-2-yl)methyl)pyrimidine-2,4-diamine], COc1cc(Nc2ncc(Cl)c(NC[C@H]3CCCO3)n2)ccc1-c1cnn(C)c1 [(R)-5-chloro-N^2-(3-methoxy-4-(1-methyl-1H-pyrazol-4-yl)phenyl)-N^4-((tetrahydrofuran-2-yl)methyl)pyrimidine-2,4-diamine] is 3.2-fold lower in IC50: 128 nM for the first, 40.4 nM for the second.

Clc1cnc(Nc2cnn(C3CCOCC3)c2)nc1NCC1CCOCC1 [5-chloro-N^2-(1-(tetrahydro-2H-pyran-4-yl)-1H-pyrazol-4-yl)-N^4-((tetrahydro-2H-pyran-4-yl)methyl)pyrimidine-2,4-diamine] and CN1CCN(Cc2ccc(Nc3ncc(Cl)c(NCC4CCOCC4)n3)cc2)CC1 [5-chloro-N^2-(4-((4-methylpiperazin-1-yl)methyl)phenyl)-N^4-((tetrahydro-2H-pyran-4-yl)methyl)pyrimidine-2,4-diamine] are within 1.5-fold of each other in IC50: 90 nM for the first, 69.1 nM for the second.

CC(C)Oc1cc(Nc2ncc(Cl)c(N[C@H](C)C3CCOCC3)n2)ccc1N1CCN(C)CC1 [(R)-5-chloro-N^2-(3-isopropoxy-4-(4-methylpiperazin-1-yl)phenyl)-N^4-(1-(tetrahydro-2H-pyran-4-yl)ethyl)pyrimidine-2,4-diamine] and CN1CCN(c2ccc(Nc3ncc(Cl)c(NCC4CCOCC4)n3)c(O)c2)CC1 [2-((5-chloro-4-(((tetrahydro-2H-pyran-4-yl)methyl)amino)pyrimidin-2-yl)amino)-5-(4-methylpiperazin-1-yl)phenol] are within 1.5-fold of each other in IC50: 37 nM for the first, 55.3 nM for the second.

Cc1cnc(Nc2cc(F)c(C3CCN(C)CC3)c(F)c2)nc1Nc1ccc(Cl)c(OCC(C)C)c1 [N^4-(4-chloro-3-isobutoxyphenyl)-N^2-(3,5-difluoro-4-(1-methylpiperidin-4-yl)phenyl)-5-methylpyrimidine-2,4-diamine] and CC(C)Oc1cc(-c2cnn(C)c2)ccc1Nc1ncc(Cl)c(NCC2CCOCC2)n1 [5-chloro-N^2-(2-isopropoxy-4-(1-methyl-1H-pyrazol-4-yl)phenyl)-N^4-((tetrahydro-2H-pyran-4-yl)methyl)pyrimidine-2,4-diamine] are within 1.5-fold of each other in IC50: 181 nM for the first, 232 nM for the second.

target: T1, ACK1; assay: ACK1 ELISA % inhibition at 100 nM; assay type: biochemical

Going from COc1cc(N2CCN(C)CC2)ccc1Nc1ncc(Cl)c(N[C@H](C)c2ccc(Cl)cc2)n1 [(R)-5-chloro-N^4-(1-(4-chlorophenyl)ethyl)-N^2-(2-methoxy-4-(4-methylpiperazin-1-yl)phenyl)pyrimidine-2,4-diamine] to COc1cc(N2CCN(C)CC2)ccc1Nc1ncc(Cl)c(N[C@@H](C)c2ccc(Cl)cc2)n1 [(S)-5-chloro-N^4-(1-(4-chlorophenyl)ethyl)-N^2-(2-methoxy-4-(4-methylpiperazin-1-yl)phenyl)pyrimidine-2,4-diamine], the inhibition at 0.1 µM falls from 50.2% to 17.5%.

Going from COc1cc(N2CCN(C)CC2)ccc1Nc1ncc(C)c(Nc2ccc(Cl)c(NS(=O)(=O)C(C)(C)C)c2)n1 [N-(2-chloro-5-((2-((2-methoxy-4-(4-methylpiperazin-1-yl)phenyl)amino)-5-methylpyrimidin-4-yl)amino)phenyl)-2-methylpropane-2-sulfonamide] to CN1CCN(c2ccc(Nc3ncc(Cl)c(N(CCc4ccccc4)CC4CCCO4)n3)cc2)CC1 (centres unmarked) [5-chloro-N^2-(4-(4-methylpiperazin-1-yl)phenyl)-N^4-phenethyl-N^4-((tetrahydrofuran-2-yl)methyl)pyrimidine-2,4-diamine], the inhibition at 0.1 µM falls from 98.7% to 32%.
